Data reported in article PMC4957924, “Prediction and verification of novel peptide targets of protein tyrosine phosphatase 1B” (Bioorganic & Medicinal Chemistry, 2016).
Where two headings read alike, the source gives them in different places.

Tests used:
[1] = target: T1, PTP1B (Homo sapiens, UniProt P18031); assay: in vitro EnzChek phosphate assay of PTP1B against synthesized phosphopeptides; assay type: biochemical; conditions: for kcat/Km / Km: peptide as substrate of PTP1B, value ± spread as printed; for recognition as substrate by PTP1B (in words): compared with Src positive control peptide
T1 construct: PTP1B was expressed and purified as described previously; made in house
T1 sequence (P18031 1-435): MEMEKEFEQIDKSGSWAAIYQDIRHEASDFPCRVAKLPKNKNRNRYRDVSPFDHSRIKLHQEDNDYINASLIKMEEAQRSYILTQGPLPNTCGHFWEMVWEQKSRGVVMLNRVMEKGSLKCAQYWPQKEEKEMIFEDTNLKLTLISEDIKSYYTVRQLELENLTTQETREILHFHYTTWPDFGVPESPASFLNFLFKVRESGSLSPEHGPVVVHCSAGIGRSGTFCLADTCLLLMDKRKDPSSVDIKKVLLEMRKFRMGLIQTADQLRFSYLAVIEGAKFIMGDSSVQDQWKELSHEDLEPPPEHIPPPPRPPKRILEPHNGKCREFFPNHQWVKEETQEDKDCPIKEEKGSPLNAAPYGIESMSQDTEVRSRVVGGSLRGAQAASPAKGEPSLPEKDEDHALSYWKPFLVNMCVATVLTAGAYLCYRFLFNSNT
Protocol: (§1) To test if the predicted phosphopeptides would indeed be in vitro substrates of PTP1B, we synthesized six of these peptides. The two peptides from JAK1 were not synthesized and tested because the sequences are highly similar to the ones of the known substrates JAK2[20] and MET[21] that were also detected by our procedure. […] (Table 1).
PTP1B was expressed and purified as described previously.[3]
The in vitro EnzChek phosphate assay was carried out with the commercial kit from Molecular Probes as described previously.[23]

[2] = Solubility of synthesized peptide (observation); assay type: physicochemical; conditions: qualitative; peptide therefore not tested in the enzymatic assay
From the text: as §1

[3] = target: T1, PTP1B; conditions: JAK2-derived phosphopeptide as PTP1B substrate; cited from earlier work
From the text: as §1, with “With the ex ...” for “(Table 1).”

Substance | kcat/Km [1] | Km ([1]; read-out: Km) | other results
DPSDNpYAEPID [Peptide 1, Predicted PTP1B phosphopeptide substrate from ARHGAP5, pY site 1090] | 11.6 ± 3.4 ×10^−5 M^−1 s^−1 | 28.5 ± 5 µM | 
DNEDVpYTFKTP [Peptide 3, Predicted PTP1B phosphopeptide substrate from GAB2, pY site 293] | 9.2 ± 1.6 ×10^−5 M^−1 s^−1 | 17.1 ± 4.1 µM | 
KKKKpYPKK [Peptide 7, reference compound] | Inactive |  | recognition as substrate by PTP1B (in words) [1]: not recognized; Km [1]: Inactive
EEEDIpYEVLPD [Peptide 2, Predicted PTP1B phosphopeptide substrate from SKAP1, pY site 271] | 27.9 ± 13.9 ×10^−5 M^−1 s^−1 | 14.7 ± 3.2 µM | 
IEDNEYTARQG [Fyn peptide, synthesized predicted phosphopeptide from Fyn] |  |  | solubility [2]: poor solubility
QENPIpYKSPIN [Peptide 5, Predicted PTP1B phosphopeptide substrate from ITGB1, pY site 783] | 7.1 ± 3.0 ×10^−5 M^−1 s^−1 | 21.7 ± 8.9 µM | 
KEpYpYKVK |  |  | Km [3]: 12.7 µM; kcat/Km [3]: 0.000232 M⁻¹ s⁻¹
IEDPpYpYGNDSD [Peptide 4, Predicted PTP1B phosphopeptide substrate from ACP1, pY site 133] | 8.9 ± 1.1 ×10^−5 M^−1 s^−1 | 20.1 ± 4.6 µM | 
STEPQpYQPGEN [Peptide 6, positive control peptide from Src as known substrate of PTP1B, reference compound] | 9.0 ± 3.7 ×10^−5 M^−1 s^−1 | 29.1 ± 5.3 µM | 
LGSRApYPHFCA [Peptide 8] |  | > 300 µM | recognition as substrate by PTP1B (in words) [1]: recognized it poorly
